Assays:
[1] = Acute toxicity (LD50, intraperitoneal, Litchfield-Wilcoxen); type: in vivo, albino Swiss I.C.R. mice; conditions: mouse, in vivo, ip, mice, both sexes, deaths noted 48 hours after treatment
Method: (§1) Acute toxicity studies have been made in albino Swiss I.C.R. mice, of both sexes, of a weight of 30±2 g, kept without food for 24 hours prior to the experiment. Temperature and relative humidity of the atmosphere were kept constant. The products were administered intraperitoneally, the number of deaths having been noted 48 hours after treatment. The lethal dose (LD50) was calculated by the Litchfield-Wilcoxen test.

albino Swiss I.C.R. mice [2] = assay: Thermal analgesia, 55° C. hot-plate technique; type: in vivo; conditions: for Jumping time in sec. x ± S.E.M.: 50 mg/kg intraperitoneally, 30 minutes after dosing, 55° C. hot-plate, average ± standard error of the mean, control 64 ± 7.911
Method: The thermal analgesic effect has been studied in albino Swiss I.C.R. mice. The 55° C. hot-plate technique has been used. Batches of 10 mice were made.
The products under study were administered intraperitoneally. After 30 minutes the mice were placed on the hot-plate and note was made of the time it took them to jump, in seconds. Batches were made of control animals injected only with distilled water.

white Swiss I.C.R. mice = assay: Chemical analgesia, acetic acid writhing technique; type: in vivo; conditions: for No. of writhes x ± S.E.M: 25 mg/kg intraperitoneally, 0.25 ml of 1% acetic acid after 30 minutes, writhes noted 20 minutes after acetic acid, control 130 ± 7.764
Method: The analgesic effect has been studied in white Swiss I.C.R. mice, with the acetic acid writhing technique. Batches of 10 mice were made.
The products under study were administered intraperitoneally, and after 30 minutes 0.25 ml of 1% acetic acid were injected intraperitoneally. A batch of control animals received only the acetic acid. The number of writhes in each mouse were noted 20 minutes after the acetic acid was administered.

albino Swiss I.C.R. mice [3] = assay: Acute toxicity (LD50, intraperitoneal, Litchfield-Wilcoxen); type: in vivo; conditions: both sexes, deaths noted 48 hours after treatment
Method: as §1

SMILES | LD50 at 48 h [1] | Jumping time in sec. x ± S.E.M. (albino Swiss I.C.R. mice [2]) | thermal analgesic activity (in words) (albino Swiss I.C.R. mice [2]; hot-plate, compared with dextropropoxyphene) | No. of writhes x ± S.E.M (white Swiss I.C.R. mice) | Signif. of differences, Dextropropox. (white Swiss I.C.R. mice; No. of writhes, 25 mg/kg, versus dextropropoxyphene) | chemical analgesic activity (in words) (white Swiss I.C.R. mice; acetic acid writhing, compared with dextropropoxyphene) | LD50 (albino Swiss I.C.R. mice [3])
CC1=CC2Cc3ccsc3C(C1)N2C (stereo not drawn) [I, 7,10-dimethyl-5,9-imino-4,5,8,9-tetrahydrocyclooct[b]thiophene] | 159 mg/kg | 114.2 ± 11.168 s | shows analgesic activity, but of less potency than that of dextropropoxyphene | 85.3 ± 13.915 | N.S. | shows the same analgesic activity as dextropropoxyphene | –
CCC(=O)O[C@](Cc1ccccc1)(c1ccccc1)[C@H](C)CN(C)C [Dextropropoxyphene, reference compound] | – | 164 ± 7.319 s | – | 68.4 ± 5.258 | – | – | 140 mg/kg

From patent US4174396A, “7,10-Dimethyl-5,9-imino-4,5,8,9-tetrahydro-cyclooct[b]thiophenes and a process for obtaining it” (Laboratories Made, S.A., priority 1978, dated 1979)
